Values after ≈ are worked out from the molar mass of the structure shown. Read-outs that look alike come from different tables or passages of the source. Marks after values point to notes of the source that are not given here.
Columns and labels:
[1] = Aqueous solubility; type: physicochemical; conditions: for aqueous solubility compared with SM-1: across a range of pH's
Source text: The aqueous solubility of Sulfoxide-1, Sufloxide-1A, Sulfoxide-1B, Sulfone-1, and SM-1 was investigated.

[2] = test system: Caco-2 monolayers; test: Caco-2 permeability; type: in vitro ADME, human; conditions: tested concentrations of 12.5 μg/mL and 50 μg/mL
Source text: Differentiated Caco-2 cells form a polarized epithelial cell monolayer that provides a physical and biochemical barrier to the passage of ions and small molecules. Using commercially available kits, the Caco-2 monolayer may be used as an in vitro model of the human small intestinal mucosa to predict the intestinal permeability or absorption of orally administered drugs. Researchers have shown a correlation for some molecules between the in vitro apparent permeability (Papp) across Caco-2 monolayers and the in vivo fraction absorbed.
The permeability of a compound may be evaluated in a bi-directional transport experiments at multiple concentrations (such as 1, 2, 5, 20, 100 and 200 μg/mL) using Caco-2 monolayers. The apparent permeability coefficients (Papp) for a compound may be calculated and compared with the permeability of a high permeability marker (such as labetalol) and a low permeability marker (such as mannitol).
(§1) The Caco-2 permeability, P-gp substrate and inhibitory activity, and BCRP substrate and inhibitory activity of Sulfoxide-1, Sufloxide-1A, Sulfoxide-1B, Sulfone-1, and SM-1 was investigated using procedures similar to those described above.
(§2) As summarized in Table 2 below, except for Sulfoxide-1B, all of the tested compounds had low Caco-2 cell permeability and were weak efflux transporter substrates at the tested concentrations of 12.5 μg/mL and 50 μg/mL.

[3] = test system: efflux transporter; test: Efflux substrate activity (monolayer efflux assay); type: in vitro ADME; conditions: tested concentrations of 12.5 μg/mL and 50 μg/mL
Description: (§3) The cell-based bidirectional permeability assay (or monolayer efflux assay) is a method for determining transporter inhibition (such as P-glycoprotein (P-gp) or Breast Cancer Resistance Protein (BCRP)) potential of test compounds in drug discovery. The experimental protocol for this assay is well established and typically, bidirectional permeability of a known substrate is assessed alone and in the presence of a single concentration of test compound to estimate the inhibition potential.
(§4) The monolayer efflux assay, where the ratio of basolateral-to-apical (B→A) permeability versus apical-to-basolateral (A→B) permeability is compared with a value of 1, is regarded as the standard for identifying substrates. Due to concentration-dependent inhibition of active efflux on the apical side by inhibitors, the B→A permeability decreases whilst A→B permeability increases with ratio approaching unity as the dose of inhibitor increases. The affinity of inhibitor to efflux protein(s) may be studied by calculating the active flux that can be obtained from the B→A fluxes in the absence and presence of efflux inhibitors. Inhibition potency, determined by inhibitor concentration-dependent transport assay, is usually represented as an IC50 value, the concentration that gives 50% of maximum inhibition of a known P-gp or BCRP substrate. Specificity of the inhibitor to P-gp or BCRP may be determined by competitive assays, which involve a transport assay of a known substrate in the presence of known inhibitors (specific to various transporters) with and without test compounds. Thus, appropriate design of competitive inhibition assays using known selected substrates and modulators will show the specificity of an inhibitor towards an efflux pump.
The potential for P-glycoprotein (P-gp) substrate inhibitory activity of a test compound may be evaluated by determining a test compound's Caco-2 permeability in the presence or absence of a P-gp inhibitor such as Cyclosporin A (CsA) or verapamil.
(§5) The substrate and inhibitor potential of a test compound for the apical efflux transported breast cancer resistance protein (BCRP) may also be evaluated using a bidirectional permeability assessment where the controls are Ko143 (a potent inhibitor of BCRP) and E3S (estrone-3-sulphate, a substrate for BCRP) and across a range of test compound concentrations such as 1, 5, 20, 100, and 200 μg/mL or 1.6, 3.2, 16, 32, 160 and 320 μg/mL).
as §1, §2

[4] = molecular target: T1, P-glycoprotein (P-gp) (Homo sapiens, UniProt P08183); test: P-gp transporter inhibition; type: in vitro ADME
T1 construct: the P-gp transporter expressed on Caco-2 cell monolayers; endogenous in cells; host or cells: Caco-2
Description: as §3, §4
The potential inhibitory activity of a compound on the P-gp transporter expressed on Caco-2 cell monolayers may be investigated in experiments monitoring the bi-directional transport of a test compound in the presence or absence of a P-gp inhibitor such as Cyclosporin A (CsA) or verapamil.
The potential inhibitory activity of a compound on the P-gp transporter expressed on Caco-2 cell monolayers may also be investigated in experiments monitoring the bi-directional transport of [^3H]-digoxin in the presence of increasing concentrations of a test compound (such as 1, 5, 20, 100, and 200 μg/mL or 1.6, 3.2, 16, 32, 160 and 320 μg/mL). If the efflux of [^3H]-digoxin is not inhibited by a test compound, the test compound is likely a poor inhibitor of P-gp. If the efflux of [^3H]-digoxin is inhibited by a test compound, the IC50 value may be calculated using a non-linear regression of permeability data collected at various concentrations.
as §1

[5] = molecular target: T2, breast cancer resistance protein (BCRP) (Homo sapiens, UniProt Q9UNQ0); test: BCRP transporter inhibition; type: in vitro ADME
T2 construct: endogenous in cells
T2 sequence (Q9UNQ0 1-655): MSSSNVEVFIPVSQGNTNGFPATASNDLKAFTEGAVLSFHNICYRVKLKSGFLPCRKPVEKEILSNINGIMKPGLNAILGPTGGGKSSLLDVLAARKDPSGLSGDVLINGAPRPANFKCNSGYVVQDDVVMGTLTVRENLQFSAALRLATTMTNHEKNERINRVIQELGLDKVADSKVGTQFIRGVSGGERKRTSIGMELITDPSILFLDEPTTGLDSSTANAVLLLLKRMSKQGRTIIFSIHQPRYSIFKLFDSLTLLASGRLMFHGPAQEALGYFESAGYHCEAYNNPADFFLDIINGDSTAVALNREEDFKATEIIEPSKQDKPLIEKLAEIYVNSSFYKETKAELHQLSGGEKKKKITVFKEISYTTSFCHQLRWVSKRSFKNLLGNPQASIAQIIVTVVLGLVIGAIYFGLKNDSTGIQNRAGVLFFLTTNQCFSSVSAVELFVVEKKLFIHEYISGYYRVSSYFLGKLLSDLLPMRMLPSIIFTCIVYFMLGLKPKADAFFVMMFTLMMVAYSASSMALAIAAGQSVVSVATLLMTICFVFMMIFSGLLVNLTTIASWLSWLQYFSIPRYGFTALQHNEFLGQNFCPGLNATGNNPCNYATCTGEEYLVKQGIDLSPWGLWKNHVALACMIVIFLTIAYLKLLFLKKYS
Description: as §3, §4, §5, §1

[6] = 0.1N HCl, simulated gastric fluid, 0.1N HCl, read-out: Solubility
[7] = acetate buffer, pH 4.5, aqueous buffer, Acetate Buffer pH 4.5, read-out: Solubility
[8] = phosphate buffer, pH 6.5, aqueous buffer, Phosphate Buffer pH 6.5, read-out: Solubility

T1 sequence (P08183 whole entry): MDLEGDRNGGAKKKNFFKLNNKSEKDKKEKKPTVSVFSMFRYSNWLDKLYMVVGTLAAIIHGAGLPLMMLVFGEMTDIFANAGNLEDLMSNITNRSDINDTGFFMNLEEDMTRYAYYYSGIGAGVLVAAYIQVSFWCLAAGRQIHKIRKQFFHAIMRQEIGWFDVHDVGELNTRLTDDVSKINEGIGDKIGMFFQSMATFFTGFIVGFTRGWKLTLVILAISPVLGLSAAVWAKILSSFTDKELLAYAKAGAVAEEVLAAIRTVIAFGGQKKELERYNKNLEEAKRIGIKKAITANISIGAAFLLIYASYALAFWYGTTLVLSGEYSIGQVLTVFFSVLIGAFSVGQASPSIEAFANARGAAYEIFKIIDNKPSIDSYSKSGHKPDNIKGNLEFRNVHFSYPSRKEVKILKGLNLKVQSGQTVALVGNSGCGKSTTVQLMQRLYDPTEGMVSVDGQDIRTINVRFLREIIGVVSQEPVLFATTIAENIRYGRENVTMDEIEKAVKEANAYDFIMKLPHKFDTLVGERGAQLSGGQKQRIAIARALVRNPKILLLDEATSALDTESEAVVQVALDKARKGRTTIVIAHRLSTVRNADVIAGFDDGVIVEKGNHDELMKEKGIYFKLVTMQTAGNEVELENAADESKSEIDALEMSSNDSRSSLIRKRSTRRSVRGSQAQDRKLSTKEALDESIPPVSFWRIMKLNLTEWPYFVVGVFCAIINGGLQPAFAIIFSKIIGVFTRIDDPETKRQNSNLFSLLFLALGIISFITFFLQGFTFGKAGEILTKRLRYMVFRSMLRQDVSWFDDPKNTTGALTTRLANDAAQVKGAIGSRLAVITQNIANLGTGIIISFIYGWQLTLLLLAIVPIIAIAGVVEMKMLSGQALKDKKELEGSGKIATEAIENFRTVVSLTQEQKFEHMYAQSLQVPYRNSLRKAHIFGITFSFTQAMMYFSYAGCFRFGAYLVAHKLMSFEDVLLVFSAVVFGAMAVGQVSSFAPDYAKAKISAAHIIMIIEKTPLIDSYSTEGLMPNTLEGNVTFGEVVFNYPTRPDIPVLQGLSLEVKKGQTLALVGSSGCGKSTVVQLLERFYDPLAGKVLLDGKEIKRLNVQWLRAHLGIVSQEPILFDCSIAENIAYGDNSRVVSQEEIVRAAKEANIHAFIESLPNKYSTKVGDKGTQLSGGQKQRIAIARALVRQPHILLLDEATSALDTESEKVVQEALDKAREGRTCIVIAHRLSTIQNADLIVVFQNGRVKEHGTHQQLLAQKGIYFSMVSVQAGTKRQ

solubility [1, 6] [µg/mL]	solubility [1, 7] [µg/mL]	solubility [1, 8] [µg/mL]	Caco-2 Permeability [2]	Efflux Transporter Substrate [3]	IC50 [4] [µM]	BCRP inhibitory activity, rank among the tested compounds [5]	IC50 [5] [µM]	solubility ([1]; 0.1N HCl) [µg/mL]	solubility ([1]; Acetate Buffer pH 4.5) [µg/mL]	solubility ([1]; Phosphate Buffer pH 6.5)	P-gp inhibitory activity, rank among the tested compounds [4]	Structure (SMILES)	aqueous solubility compared with SM-1 [1]
30 (≈ 0.0636 mM)	2570 (≈ 5.45 mM)	2930 (≈ 6.21 mM)	Low	Yes	~212	weakest BCRP inhibitors	> 212					CCCO[C@H]1CC[C@H](N(C(=O)Nc2ncc([S+]([O-])CC(=O)O)s2)C2CCCCC2)CC1 (relative stereo) [Sulfoxide-1, {2-[3-Cyclohexyl-3-(trans-4-propoxy-cyclohexyl)-ureido]-thiazol-5-ylsulfinyl}-acetic acid]	much greater aqueous solubility than SM-1
120 (≈ 0.254 mM)	1630 (≈ 3.46 mM)	1940 (≈ 4.11 mM)	Low	Yes	~138		~170					CCCO[C@H]1CC[C@H](N(C(=O)Nc2ncc([S+]([O-])CC(=O)O)s2)C2CCCCC2)CC1 (single isomer, unassigned) [Sulfoxide-1A, {2-[3-Cyclohexyl-3-(trans-4-propoxy-cyclohexyl)-ureido]-thiazol-5-ylsulfinyl}-acetic acid]	much greater aqueous solubility than SM-1
	0.44 (≈ 0.000966 mM)	21 (≈ 0.0461 mM)	Low	Yes	115	strongest BCRP inhibitor	19.5					CCCO[C@H]1CC[C@H](N(C(=O)Nc2ncc(SCC(=O)O)s2)C2CCCCC2)CC1 [SM-1, {2-[3-cyclohexyl-3-(trans-4-propoxy-cyclohexyl)-ureido]-thiazol-5-ylsulfanyl}-acetic acid, reference compound]	
10 (≈ 0.0205 mM)	2070 (≈ 4.24 mM)	2100 (≈ 4.31 mM)	Low	Yes	~205	weakest BCRP inhibitors	> 205					CCCO[C@H]1CC[C@H](N(C(=O)Nc2ncc(S(=O)(=O)CC(=O)O)s2)C2CCCCC2)CC1 [Sulfone-1, {2-[3-Cyclohexyl-3-(trans-4-propoxy-cyclohexyl)-ureido]-thiazol-5-ylsulfonyl}-acetic acid]	much greater aqueous solubility than SM-1

Structure (SMILES)	solubility [1, 6] [µg/mL]	solubility [1, 7] [µg/mL]	solubility [1, 8] [µg/mL]	Caco-2 Permeability [2]	Efflux Transporter Substrate [3]	IC50 [4] [µM]	BCRP inhibitory activity, rank among the tested compounds [5]	IC50 [5] [µM]	solubility ([1]; 0.1N HCl) [µg/mL]	solubility ([1]; Acetate Buffer pH 4.5) [µg/mL]	solubility ([1]; Phosphate Buffer pH 6.5)	P-gp inhibitory activity, rank among the tested compounds [4]	aqueous solubility compared with SM-1 [1]
CCCO[C@H]1CC[C@H](N(C(=O)Nc2ncc([S+]([O-])CC(=O)O)s2)C2CCCCC2)CC1 (single isomer, unassigned) [Sulfoxide-1B, {2-[3-Cyclohexyl-3-(trans-4-propoxy-cyclohexyl)-ureido]-thiazol-5-ylsulfinyl}-acetic acid]				Moderate	not an efflux transporter substrate and No	> 212	weakest BCRP inhibitors	> 212	120 (≈ 0.254 mM)	1850 (≈ 3.92 mM)	1990* μg/mL	weakest P-gp inhibitor	much greater aqueous solubility than SM-1
